Counter-ions that a name gives are not always drawn.
Tests used:
[1] = test system: MCF-7 (mammary gland, adenocarcinoma); conditions: 10 μM, 72 hours
Description: (§1) These cells were seeded at an amount of 2×10^6 cells, and then added with the culture medium for cultivating the cells to a volume of 10 mL, followed by cultivation for 2 to 3 days. After counting the cell number, these cells were respectively plated in a 96-well plate, in which each well has a fixed cell number of 3000 and a volume of 100 μL.
(§2) After removing the culture medium in the 96-well plate, each well was added with 100 μL of 10 μM commercial drug and then placed for 72 hours. Thereafter, each well was further added with 100 μL of a diluted WST-1 solution (the dilution ratio for the culture medium: WST-1 stock solution (wt/wt) is 9:1).

Ovarian cancer = conditions: summary over cell lines, 10 μM, 72 hours
Description: as §1, §2

AsPC-1 = conditions: 10 μM, 72 hours
Description: as §1, §2
(§3) Each cancer cell inhibitory experiment was repeated for 4 times, followed by calculation of the mean values thereof, which were shown in the following tables.

[2] = test system: HeLa (cervix adenocarcinoma); conditions: 10 μM, 72 hours
Description: as §1, §2

[3] = test system: C-33A (cervical carcinoma); conditions: 10 μM, 72 hours
Description: as §1, §2

[4] = test system: A375 (amelanotic melanoma); conditions: 10 μM, 72 hours
Description: as §1, §2

[5] = test system: BCC (basal cell carcinoma); conditions: 10 μM, 72 hours
Description: as §1, §2

[6] = test system: SAS (tongue squamouscell carcinoma); conditions: 10 μM, 72 hours
Description: as §1, §2, §3

[7] = test system: AGS (gastric adenocarcinoma); conditions: 10 μM, 72 hours
Description: as §1, §2, §3

Liver cancer = conditions: summary over cell lines, 10 μM, 72 hours
Description: as §1, §2

[8] = test system: HepG2 (hepatocellular carcinoma); conditions: 10 μM, 72 hours
Description: as §1, §2, §3

Bladder cancer = conditions: summary over cell lines, 10 μM, 72 hours
Description: as §1, §2

[9] = test system: PC-3 (prostate adenocarcinoma); conditions: 10 μM, 72 hours
Description: as §1, §2, §3

[10] = test system: LoVo (colorectal adenocarcinoma); conditions: 10 μM, 72 hours
Description: as §1, §2, §3

[11] = test system: MKN-45 (gastric adenocarcinoma); conditions: 10 μM, 72 hours
Description: as §1, §2, §3

[12] = test system: 786-O (renal adenocarcinoma); conditions: 10 μM, 72 hours
Description: as §1, §2

[13] = test system: BEAS-2B (lung epithelial); conditions: 10 μM, 72 hours
Description: as §1, §2
(§4) Each cell inhibitory experiment was repeated for 4 times, followed by calculation of the mean values thereof, which were shown in the following tables.

LNCap = conditions: 10 μM, 72 hours, single experiments not given
Prostate cancer = conditions: summary over cell lines, 10 μM, 72 hours
Description: as §1, §2

Lung cancer = conditions: summary over cell lines, 10 μM, 72 hours
Description: as §1, §2

Gastric cancer = conditions: summary over cell lines, 10 μM, 72 hours
Description: as §1, §2

[14] = test system: MDA-MB-231 (mammary gland, adenocarcinoma); conditions: 10 μM, 72 hours
Description: as §1, §2, §3

Pancreatic cancer = conditions: summary over cell lines, 10 μM, 72 hours
Description: as §1, §2

[15] = test system: HCT116-wt (colorectal carcinoma); conditions: 10 μM, 72 hours
Description: as §1, §2, §3

BxPC-3 = conditions: 10 μM, 72 hours
Description: as §1, §2, §3

Skin cancer = conditions: summary over cell lines, 10 μM, 72 hours
Description: as §1, §2

[16] = test system: H1650 (lung adenocarcinoma); conditions: 10 μM, 72 hours
Description: as §1, §2

NIH-OVCAR-3 = conditions: 10 μM, 72 hours
Description: as §1, §2

[17] = BEAS-2B normal lung epithelial cells, single experiment

Description for normal cells: as §1, §2, §4

## CNCC[C@H](Oc1cccc2ccccc12)c1cccs1 [duloxetine HCl, Duloxetine hydrochloride]
[1]; mean of 4 experiments
  Mean survival rate (%): 31.2%
[1]; single experiment
  survival rate 0612-10 min: 29.0%
  survival rate 0614-10 min: 37.3%
  survival rate 0616-10 min: 30.0%
  survival rate 0619-10 min: 28.5%
Ovarian cancer
  Survival rate (%): 51.5%
AsPC-1; mean of 4 experiments
  Mean survival rate (%): 60.3%
AsPC-1; single experiment
  survival rate 1-4-30 min: 61.7%
  survival rate 1-7-3-30 min: 75.7%
  survival rate 1-7-4-30 min: 78.0%
  survival rate 1-7-7-30 min: 26.0%
[2]; mean of 4 experiments
  Mean survival rate (%): 33.8%
[2]; single experiment
  survival rate 0524-10 min: 27.7%
  survival rate 0526-10 min: 29.9%
  survival rate 0529-10 min: 25.4%
  survival rate 0531-10 min: 52.1%
[3]; mean of 4 experiments
  Mean survival rate (%): 40.7%
[3]; single experiment
  survival rate 0524-10 min: 34.3%
  survival rate 0526-10 min: 52.4%
  survival rate 0529-10 min: 33.7%
  survival rate 0531-10 min: 42.4%
Normal cells; normal cells
  cytotoxicity to the normal cells: little or no cytotoxicity
Normal cells; normal cells versus tumor cells
  selective effect between normal cells and tumor cells: selective effect
[4]; mean of 4 experiments
  Mean survival rate (%): 31.5%
[4]; single experiment
  survival rate 0602-30 min: 25.7%
  survival rate 0605-10 min: 16.2%
  survival rate 0607-10 min: 17.1%
  survival rate 0609-10 min: 67.0%
[5]; mean of 3 experiments
  Mean (survival rate): 48.1%
[5]; single experiment
  survival rate 0602-30 min: 43.9%
  survival rate 0605-10 min: 31.3%
  survival rate 0607-10 min: 69.0%
[6]; Lingual cancer (SAS), summary table
  Survival rate (%): 82.44%
[6]; SAS, mean of 4 experiments
  Mean survival rate (%): 82.4%
[6]; SAS, single experiment
  survival rate 6-26-10 min: 45.7%
  survival rate 6-28-10 min: 88.9%
  survival rate 6-30-10 min: 96.2%
  survival rate 7-3-10 min: 98.9%
[7]; mean of 4 experiments
  Mean survival rate (%): 23.5%
[7]; single experiment
  survival rate 0510-10 min: 25.0%
  survival rate 0512-10 min: 15.9%
  survival rate 0515-10 min: 37.3%
  survival rate 0517-10 min: 15.8%
Liver cancer
  Survival rate (%): 40.95%
[8]; mean of 4 experiments
  Mean survival rate (%): 34.0%
[8]; single experiment
  survival rate 0524-20 min: 14.8%
  survival rate 0526-20 min: 44.7%
  survival rate 0529-20 min: 37.7%
  survival rate 0531-20 min: 38.9%
Bladder cancer
  Survival rate (%): 67.2%
[9]; mean of 4 experiments
  Mean survival rate (%): 45.6%
[9]; single experiment
  survival rate PC-3-0524-10 min: 45.0%
  survival rate PC-3-0526-10 min: 70.9%
  survival rate PC-3-0529-10 min: 41.4%
  survival rate PC-3-0531-10 min: 25.1%
[10]; mean of 4 experiments
  Mean survival rate (%): 47.3%
[10]; single experiment
  survival rate 0616-10 min: 44.8%
  survival rate 0619-10 min: 63.4%
  survival rate 0621-10 min: 49.9%
  survival rate 0623-10 min: 31.0%
[11]; mean of 4 experiments
  Mean (survival rate): 59.7%
[11]; single experiment
  survival rate 0510-10 min: 59.5%
  survival rate 0512-10 min: 75.3%
  survival rate 0515-10 min: 46.0%
  survival rate 0517-10 min: 57.9%
[12]; 786-O, mean of 4 experiments
  Mean survival rate (%): 67.3%
[12]; 786-O, single experiment
  survival rate 0524-10 min: 60.4%
  survival rate 0526-10 min: 89.7%
  survival rate 0529-10 min: 49.0%
  survival rate 0531-10 min: 70.1%
[12]; Renal cancer (786-O), summary table
  Survival rate (%): 67.3%
[13]; BEAS-2B normal lung epithelial cells, mean of 4 experiments
  Mean survival rate (%): 72.5%
[13]; [17]
  survival rate 0510-10 min: 59.5%
  survival rate 0512-10 min: 76.3%
  survival rate 0515-10 min: 74.7%
  survival rate 0517-10 min: 79.6%
[13]; Lung epithelial cells (BEAS-2B normal cells), summary table
  Survival rate (%): 72.50%
LNCap
  Mean (survival rate): 72.8%
Prostate cancer
  Survival rate (%): 59.23%
Lung cancer
  Survival rate (%): 36.87%
Gastric cancer
  Survival rate (%): 41.6%
[14]; mean of 3 printed experiments
  Mean (survival rate): 65.9%
[14]; single experiment
  survival rate 0612-10 min: 53.4%
  survival rate 0614-10 min: 70.2%
  survival rate 0616-10 min: 74.3%
Pancreatic cancer
  Survival rate (%): 57.2%
[15]; mean of 4 experiments
  Mean survival rate (%): 77.1%
[15]; single experiment
  survival rate 0602-30 min: 52.1%
  survival rate 0605-10 min: 108.8%
  survival rate 0607-10 min: 127.4%
  survival rate 0609-10 min: 20.3%
BxPC-3; mean of 4 experiments
  Mean survival rate (%): 54.0%
BxPC-3; single experiment
  survival rate 3-4-30 min: 72.4%
  survival rate 3-7-3-30 min: 62.1%
  survival rate 3-7-4-30 min: 58.8%
  survival rate 3-7-7-30 min: 22.7%
Skin cancer
  Survival rate (%): 39.79%
[16]; mean of 4 experiments
  Mean (survival rate): 36.3%
[16]; single experiment
  survival rate 1-10 min: 35.2%
  survival rate 2-20 min: 36.9%
  survival rate 3-20 min: 33.6%
  survival rate 4-20 min: 39.4%
NIH-OVCAR-3; mean of 4 experiments
  Mean survival rate (%): 68.2%
NIH-OVCAR-3; single experiment
  survival rate 7-3-30 min: 64.8%
  survival rate 7-4-30 min: 74.6%
  survival rate 7-7-30 min: 78.5%
  survival rate -4-30 min: 55.0%

From patent US10045962B2 (priority 2014, dated 2018)
